Reference: ChEMBL document CHEMBL5505977, “Discovery of novel pyrrolo[2,3-d]pyrimidines as potent menin-mixed lineage leukemia interaction inhibitors” (Eur J Med Chem, 2024)
Blank lines part the entries; values can stand above or below the molecule they belong to.

What was measured:
HL-60 = test: Antiproliferative activity against human HL-60 cells incubated for 72 hrs by MTT assay; format: functional, cell-based; details: HL-60, 72 h
SU-DHL-6 = test: Antiproliferative activity against human SU-DHL-6 cells incubated for 72 hrs by MTT assay; format: functional, cell-based; details: SU-DHL-6, 72 h
Pfeiffer = test: Antiproliferative activity against human Pfeiffer cells incubated for 72 hrs by MTT assay; format: functional, cell-based
Raji = test: Antiproliferative activity against human Raji cells incubated for 72 hrs by MTT assay; format: functional, cell-based
Ramos = test: Antiproliferative activity against human Ramos cells incubated for 72 hrs by MTT assay; format: functional, cell-based
HCT-116 = test: Antiproliferative activity against human HCT-116 cells incubated for 72 hrs by MTT assay; format: functional, cell-based; details: HCT-116, 72 h
MCF7 = test: Antiproliferative activity against human MCF7 cells incubated for 72 hrs by MTT assay; format: functional, cell-based; details: MCF7, 72 h
[1] = Antiproliferative activity against human NCM460 cells incubated for 72 hrs by MTT assay; format: toxicity, cell-based
MV4-11 [2] = test: cells; details: Homo sapiens, MV4-11, 72 h
Description: Antiproliferative activity against human MV4-11 cells incubated for 72 hrs by MTT assay

Menin = target: T1, Menin (Homo sapiens, UniProt O00255); test: Binding affinity to menin (unknown origin) incubated for 1 hr by fluorescence polarization assay
T1 sequence (O00255 whole entry): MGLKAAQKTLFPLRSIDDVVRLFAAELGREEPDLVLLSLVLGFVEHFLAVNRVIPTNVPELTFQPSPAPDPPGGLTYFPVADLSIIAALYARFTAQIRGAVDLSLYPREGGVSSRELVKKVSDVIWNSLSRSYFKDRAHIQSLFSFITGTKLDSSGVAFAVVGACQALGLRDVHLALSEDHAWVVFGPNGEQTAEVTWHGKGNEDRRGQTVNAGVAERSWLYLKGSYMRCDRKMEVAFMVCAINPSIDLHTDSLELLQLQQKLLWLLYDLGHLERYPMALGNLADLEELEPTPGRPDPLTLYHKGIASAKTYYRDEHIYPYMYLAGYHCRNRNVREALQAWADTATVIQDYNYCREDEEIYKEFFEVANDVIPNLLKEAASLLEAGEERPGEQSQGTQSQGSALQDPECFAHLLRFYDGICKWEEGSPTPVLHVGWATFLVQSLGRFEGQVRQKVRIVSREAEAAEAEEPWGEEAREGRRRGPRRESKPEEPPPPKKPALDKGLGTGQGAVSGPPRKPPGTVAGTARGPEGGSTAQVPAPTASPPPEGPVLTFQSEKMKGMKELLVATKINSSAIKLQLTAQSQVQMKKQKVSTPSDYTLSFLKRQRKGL

MV4-11 [3] = test: Induction of apoptosis in human MV4-11 cells assessed as viable cells at 1 uM incubated for 24 hrs by FITC Annexin-V/PI staining based flow cytometry analysis (reference value: 94.27%); format: functional; details: read-out: Activity
MV4-11 [4] = test: Induction of apoptosis in human MV4-11 cells assessed as early apoptotic cells at 1 uM incubated for 24 hrs by FITC Annexin-V/PI staining based flow cytometry analysis (reference value: 2.68%); format: functional
MV4-11 [5] = test: Induction of apoptosis in human MV4-11 cells assessed as late apoptotic cells at 1 uM incubated for 24 hrs by FITC Annexin-V/PI staining based flow cytometry analysis (reference value: 3%); format: functional
MV4-11 [6] = test: Induction of apoptosis in human MV4-11 cells assessed as necrotic cells at 1 uM incubated for 24 hrs by FITC Annexin-V/PI staining based flow cytometry analysis (reference value: 0.04%); format: functional
MV4-11 [7] = test: Induction of apoptosis in human MV4-11 cells assessed as viable cells at 10 uM incubated for 24 hrs by FITC Annexin-V/PI staining based flow cytometry analysis (reference value: 94.27%); format: functional; details: read-out: Activity
MV4-11 [8] = test: Induction of apoptosis in human MV4-11 cells assessed as early apoptotic cells at 10 uM incubated for 24 hrs by FITC Annexin-V/PI staining based flow cytometry analysis (reference value: 2.68%); format: functional
MV4-11 [9] = test: Induction of apoptosis in human MV4-11 cells assessed as late apoptotic cells at 10 uM incubated for 24 hrs by FITC Annexin-V/PI staining based flow cytometry analysis (reference value: 3%); format: functional
MV4-11 [10] = test: Induction of apoptosis in human MV4-11 cells assessed as necrotic cells at 10 uM incubated for 24 hrs by FITC Annexin-V/PI staining based flow cytometry analysis (reference value: 0.04%); format: functional
MV4-11 [11] = test: Induction of apoptosis in human MV4-11 cells assessed as viable cells at 0.1 uM incubated for 24 hrs by FITC Annexin-V/PI staining based flow cytometry analysis (reference value: 94.27%); format: functional; details: read-out: Activity
MV4-11 [12] = test: Induction of apoptosis in human MV4-11 cells assessed as early apoptotic cells at 0.1 uM incubated for 24 hrs by FITC Annexin-V/PI staining based flow cytometry analysis (reference value: 2.68%); format: functional
MV4-11 [13] = test: Induction of apoptosis in human MV4-11 cells assessed as late apoptotic cells at 0.1 uM incubated for 24 hrs by FITC Annexin-V/PI staining based flow cytometry analysis (reference value: 3%); format: functional
MV4-11 [14] = test: Induction of apoptosis in human MV4-11 cells assessed as necrotic cells at 0.1 uM incubated for 24 hrs by FITC Annexin-V/PI staining based flow cytometry analysis (reference value: 0.04%); format: functional
MV4-11 [15] = test: Induction of cell cycle arrest in human MV4-11 cells assessed as accumulation of cells at G0/G1 phase incubated for 24 hrs by PI/RNase staining based flow cytometry analysis; format: functional; details: dose 0.1-10 µM
MV4-11 [16] = test: Effect on cell differentiation in human MV4-11 cells assessed as decrease in HOXA9 expression level incubated for 48 hrs by qPCR analysis; format: functional, cell-based
MV4-11 [17] = test: Effect on cell differentiation in human MV4-11 cells assessed as decrease in HOXA9 expression level at 0.5 uM by qPCR analysis; format: functional, cell-based; details: time 24-48 hrs, TDE = time-dependent effect
MV4-11 [18] = test: Effect on cell differentiation in human MV4-11 cells assessed as decrease in MEIS1 expression level incubated for 48 hrs by qPCR analysis; format: functional, cell-based
MV4-11 [19] = test: Effect on cell differentiation in human MV4-11 cells assessed as decrease in MEIS1 expression level at 0.5 uM by qPCR analysis; format: functional, cell-based; details: time 24-48 hrs, TDE = time-dependent effect
MV4-11 [20] = test: Effect on cell differentiation in human MV4-11 cells assessed as assessed as increase in CD11b protein expression at M2-1 at 1 uM incubated for 7 days by flow cytometry analysis (reference value: 86.12%); format: functional; details: time 7 day
MV4-11 [21] = test: Effect on cell differentiation in human MV4-11 cells assessed as assessed as increase in CD11b protein expression at M2-2 at 1 uM incubated for 7 days by flow cytometry analysis (reference value: 13.86%); format: functional; details: time 7 day
MV4-11 [22] = test: Effect on cell differentiation in human MV4-11 cells assessed as assessed as increase in CD11b protein expression at M2-1 at 10 uM incubated for 7 days by flow cytometry analysis (reference value: 86.12%); format: functional; details: time 7 day
MV4-11 [23] = test: Effect on cell differentiation in human MV4-11 cells assessed as assessed as increase in CD11b protein expression at M2-2 at 10 uM incubated for 7 days by flow cytometry analysis (reference value: 13.86%); format: functional; details: time 7 day
MV4-11 [24] = test: Effect on cell differentiation in human MV4-11 cells assessed as assessed as increase in CD11b protein expression at M2-1 at 0.1 uM incubated for 7 days by flow cytometry analysis (reference value: 86.12%); format: functional; details: time 7 day
MV4-11 [25] = test: Effect on cell differentiation in human MV4-11 cells assessed as assessed as increase in CD11b protein expression at M2-2 at 0.1 uM incubated for 7 days by flow cytometry analysis (reference value: 13.86%); format: functional; details: time 7 day

- IC50 (HL-60): > 10 µM
- IC50 (SU-DHL-6): 0.1 µM
- IC50 (Raji): > 10 µM
- IC50 (Ramos): > 10 µM
- IC50 (HCT-116): > 10 µM
- IC50 (MCF7): > 10 µM
- IC50 (MV4-11 [2]): > 10 µM
SMILES: CC[C@H](Nc1ncnc2[nH]cnc12)c1nc2cccc(F)c2c(=O)n1-c1ccccc1 [IDELALISIB]
- IC50 (Pfeiffer): > 10 µM
- IC50 at 72 h [1]: > 10 µM

- IC50 (Menin): > 10 µM
- IC50 (HL-60): > 10 µM
- IC50 (MV4-11 [2]): > 10 µM
SMILES: CN(C)CCOc1ncnc2c1ccn2C1CCN(CC2CN(c3ccc(C#N)cc3)C2)CC1

- IC50 (Menin): 0.38 µM
- IC50 (HL-60): > 10 µM
- IC50 (SU-DHL-6): 6.87 µM
- IC50 (Raji): > 10 µM
- IC50 (Ramos): > 10 µM
- IC50 (HCT-116): > 10 µM
- IC50 (MCF7): > 10 µM
- IC50 (MV4-11 [2]): 1.07 µM
SMILES: N#Cc1ccc(N2CC(CN3CCC(n4cc(-c5ccc(F)cc5)c5c(N)ncnc54)CC3)C2)cc1
- IC50 (Pfeiffer): > 10 µM
- IC50 at 72 h [1]: > 10 µM
- viability at 1 µM (MV4-11 [3]): 91%
- Activity (MV4-11 [4]): 4.53%
- Activity (MV4-11 [5]): 4.23%
- Activity (MV4-11 [6]): 0.14%
- viability at 10 µM (MV4-11 [7]): 55.8%
- Activity (MV4-11 [8]): 8.52%
- Activity (MV4-11 [9]): 34.56%
- Activity (MV4-11 [10]): 1.09%
- viability at 0.1 µM (MV4-11 [11]): 93.9%
- Activity (MV4-11 [12]): 3.34%
- Activity (MV4-11 [13]): 2.75%
- Activity (MV4-11 [14]): 0.05%
- Activity (MV4-11 [15]): Dose-Dependent Effect
- Activity (MV4-11 [16]): Dose-Dependent Effect
- Activity (MV4-11 [17]): Tde
- Activity (MV4-11 [18]): Dose-Dependent Effect
- Activity (MV4-11 [19]): Tde
- Activity (MV4-11 [20]): 68.53%
- Activity (MV4-11 [21]): 31.47%
- Activity (MV4-11 [22]): 30.31%
- Activity (MV4-11 [23]): 69.67%
- Activity (MV4-11 [24]): 85.59%
- Activity (MV4-11 [25]): 14.39%

- IC50 (Menin): 1.04 µM
- IC50 (HL-60): > 10 µM
- IC50 (MV4-11 [2]): 1.94 µM
SMILES: Nc1ncnc2c1c(-c1ccc(F)cc1)cn2C1CCN(CC2CN(c3ccc(S(=O)(=O)C4CCCC4)cc3)C2)CC1

- IC50 (Menin): > 10 µM
- IC50 (HL-60): > 10 µM
- IC50 (MV4-11 [2]): 6.54 µM
SMILES: N#Cc1ccc(N2CC(CN3CCC(n4ccc5c(Cl)ncnc54)CC3)C2)cc1
